Reference: US7927624B2, “Hydrophilic/lipophilic polymeric matrix dosage formulation” (Jagotec AG, priority 2000, dated 2011)
Values after ≈ are worked out from the molar mass of the structure shown.

Experiment: physchem
Settings: water

CCCN(CCC)CCc1cccc2c1CC(=O)N2 [ropinirole, Ropinirole]
solubility: 133 mg/mL (≈ 511 mM)
